From ChEMBL document CHEMBL1201862, “PubChem BioAssay data set” (2004)
Active and inactive are the calls of the source.

Columns and labels:
[1] = target: DNA dC->dU-editing enzyme APOBEC-3A (Homo sapiens, UniProt P31941); assay: Dose Response confirmation of small molecule APOBEC3A DNA Deaminase Inhibitors via a fluorescence-based single-stranded DNA deaminase assay. [Related pubchem assays (depositor defined):AID493011, AID493024]; type: functional
[2] = target: T1, Carboxy-terminal domain RNA polymerase II polypeptide A small phosphatase 1 (Homo sapiens, UniProt Q9GZU7); assay: inhibitors of CTDSP1, concentration-response testing, biochemical assay, absorbance-based, actives from ultra-high-throughput screening (AID 540297); type: functional
T1 sequence (Q9GZU7 whole entry): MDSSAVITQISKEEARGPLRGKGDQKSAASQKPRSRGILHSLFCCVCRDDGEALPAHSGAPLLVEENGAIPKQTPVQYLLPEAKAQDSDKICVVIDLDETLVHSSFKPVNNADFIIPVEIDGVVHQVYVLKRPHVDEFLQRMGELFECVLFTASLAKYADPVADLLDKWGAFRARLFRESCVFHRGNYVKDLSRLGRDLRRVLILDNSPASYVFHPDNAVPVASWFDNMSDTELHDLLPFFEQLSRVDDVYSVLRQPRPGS

INS1 = assay: beta cell apoptosis inhibitors, cytokine rescue, dose response, luminescence, retest (AID 449756); type: functional, cell-based; details: Rattus norvegicus;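 further: cell death triggered by IL-1 beta plus TNF-alpha plus IFN-gamma mixture; protective hits raise ATP signal compared with cytokine alone wells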
[3] = target: T2, Serine/threonine-protein phosphatase (Candida dubliniensis (strain CD36 / CBS 7987 / NCPF 3949 / NRRLY-17841) (Yeast), UniProt B9W6M3); assay: calcineurin pathway inhibitors in yeast reporter, dose response, S. cerevisiae, CDRE-lacZ, luminescence, secondary (AID 2388); type: functional, cell-based;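 further: yeast reporter cells carrying a calcineurin-responsive lacZ construct stimulated with calcium chloride; luminescent beta-galactosidase reporter signal in whole cells rather than isolated phosphatase activity; potency for inhibition where a drop in reporter signal means calcineurin blockade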
T2 sequence (B9W6M3 whole entry): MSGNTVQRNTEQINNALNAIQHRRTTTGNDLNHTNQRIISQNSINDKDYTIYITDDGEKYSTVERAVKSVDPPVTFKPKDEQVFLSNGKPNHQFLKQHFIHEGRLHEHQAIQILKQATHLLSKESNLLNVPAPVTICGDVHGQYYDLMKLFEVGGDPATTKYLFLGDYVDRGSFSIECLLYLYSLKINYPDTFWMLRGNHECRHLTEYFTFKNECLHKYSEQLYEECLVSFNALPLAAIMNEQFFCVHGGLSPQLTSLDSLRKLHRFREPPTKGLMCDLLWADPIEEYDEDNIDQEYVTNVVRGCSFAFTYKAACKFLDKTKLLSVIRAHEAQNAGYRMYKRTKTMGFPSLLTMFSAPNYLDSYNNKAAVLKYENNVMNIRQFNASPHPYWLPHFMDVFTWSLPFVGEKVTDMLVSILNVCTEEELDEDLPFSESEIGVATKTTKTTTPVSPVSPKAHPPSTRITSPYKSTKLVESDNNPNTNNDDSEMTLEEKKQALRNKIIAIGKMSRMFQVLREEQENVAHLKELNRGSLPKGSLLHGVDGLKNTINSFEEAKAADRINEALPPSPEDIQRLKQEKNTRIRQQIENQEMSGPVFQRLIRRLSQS

[4] = target: ATP-dependent molecular chaperone HSP82 (Candida albicans (strain WO-1) (Yeast), UniProt C4YTQ8); assay: loss of DOC-induced GRE-beta-galactosidase reporter signal, dose response, Hsp90 inhibitor project, S. cerevisiae, luminescence (AID 2400); type: functional, cell-based;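 further: beta-galactosidase luminescence from glucocorticoid response element reporter as proxy for Hsp90 function; inhibitor potency where signal loss means Hsp90 inhibition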
cells [5] = type: functional, cell-based
[6] = C. albicans growth with fluconazole, confirmation, fluorescence, retest (AID 2467); type: functional, cell-based
cells [7] = type: functional, cell-based; remark: listed apart in the source
[8] = target: Heat shock protein HSP 90-alpha (Homo sapiens, UniProt P07900); type: functional, organism-based
[9] = cytotoxicity in HEK-293T cells, dose response, cytotoxicity control for TCR NF-kB inhibitor project, luminescence, T-cell screen hits (AID 489026); type: functional, cell-based;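 further: cells exposed to compound about 14 hours before the viability readout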
[10] = microbe, parasite or virus in culture; type: functional; details: Mycobacterium tuberculosis
[11] = NIH-3T3 fibroblast cytotoxicity, dose response, cytotoxicity control, cell-based, fluorescence, Alamar Blue, secondary assay (AID 2327); type: functional;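 further: NIH-3T3 mouse fibroblasts cultured with fluconazole at 8 µg/mL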
[12] = target: Peroxisome proliferator-activated receptor gamma/Nuclear receptor coactivator 1 (Homo sapiens, UniProt P37231); assay: TR-FRET dose response biochemical High Throughput Screening assay for agonists of the steroid receptor coactivator 1 (SRC-1) recruitment by the peroxisome proliferator-activated receptor gamma (PPAR gamma): non-selective agonists. [Related pubchem assays (depositor defined):AID1300, AID1808, AID504735, AID631]; type: protein assay
Peroxisome proliferator-activated receptor gamma/Nuclear receptor coactivator 1, sequence (P37231 whole entry): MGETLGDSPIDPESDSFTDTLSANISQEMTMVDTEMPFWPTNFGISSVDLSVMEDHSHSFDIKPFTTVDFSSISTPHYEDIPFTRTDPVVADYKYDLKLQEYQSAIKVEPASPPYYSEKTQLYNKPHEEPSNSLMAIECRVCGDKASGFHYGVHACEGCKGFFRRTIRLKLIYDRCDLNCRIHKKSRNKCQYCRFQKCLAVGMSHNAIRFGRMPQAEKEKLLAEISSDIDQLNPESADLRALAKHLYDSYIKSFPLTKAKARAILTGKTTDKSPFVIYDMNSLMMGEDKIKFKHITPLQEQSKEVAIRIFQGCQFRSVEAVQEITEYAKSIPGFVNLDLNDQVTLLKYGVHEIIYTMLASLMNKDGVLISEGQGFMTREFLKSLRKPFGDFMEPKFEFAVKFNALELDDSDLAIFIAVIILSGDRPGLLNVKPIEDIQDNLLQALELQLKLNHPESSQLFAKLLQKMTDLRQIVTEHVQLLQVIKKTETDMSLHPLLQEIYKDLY
Peroxisome proliferator-activated receptor gamma/Nuclear receptor coactivator 1, sequence (Q15788 whole entry, further chain): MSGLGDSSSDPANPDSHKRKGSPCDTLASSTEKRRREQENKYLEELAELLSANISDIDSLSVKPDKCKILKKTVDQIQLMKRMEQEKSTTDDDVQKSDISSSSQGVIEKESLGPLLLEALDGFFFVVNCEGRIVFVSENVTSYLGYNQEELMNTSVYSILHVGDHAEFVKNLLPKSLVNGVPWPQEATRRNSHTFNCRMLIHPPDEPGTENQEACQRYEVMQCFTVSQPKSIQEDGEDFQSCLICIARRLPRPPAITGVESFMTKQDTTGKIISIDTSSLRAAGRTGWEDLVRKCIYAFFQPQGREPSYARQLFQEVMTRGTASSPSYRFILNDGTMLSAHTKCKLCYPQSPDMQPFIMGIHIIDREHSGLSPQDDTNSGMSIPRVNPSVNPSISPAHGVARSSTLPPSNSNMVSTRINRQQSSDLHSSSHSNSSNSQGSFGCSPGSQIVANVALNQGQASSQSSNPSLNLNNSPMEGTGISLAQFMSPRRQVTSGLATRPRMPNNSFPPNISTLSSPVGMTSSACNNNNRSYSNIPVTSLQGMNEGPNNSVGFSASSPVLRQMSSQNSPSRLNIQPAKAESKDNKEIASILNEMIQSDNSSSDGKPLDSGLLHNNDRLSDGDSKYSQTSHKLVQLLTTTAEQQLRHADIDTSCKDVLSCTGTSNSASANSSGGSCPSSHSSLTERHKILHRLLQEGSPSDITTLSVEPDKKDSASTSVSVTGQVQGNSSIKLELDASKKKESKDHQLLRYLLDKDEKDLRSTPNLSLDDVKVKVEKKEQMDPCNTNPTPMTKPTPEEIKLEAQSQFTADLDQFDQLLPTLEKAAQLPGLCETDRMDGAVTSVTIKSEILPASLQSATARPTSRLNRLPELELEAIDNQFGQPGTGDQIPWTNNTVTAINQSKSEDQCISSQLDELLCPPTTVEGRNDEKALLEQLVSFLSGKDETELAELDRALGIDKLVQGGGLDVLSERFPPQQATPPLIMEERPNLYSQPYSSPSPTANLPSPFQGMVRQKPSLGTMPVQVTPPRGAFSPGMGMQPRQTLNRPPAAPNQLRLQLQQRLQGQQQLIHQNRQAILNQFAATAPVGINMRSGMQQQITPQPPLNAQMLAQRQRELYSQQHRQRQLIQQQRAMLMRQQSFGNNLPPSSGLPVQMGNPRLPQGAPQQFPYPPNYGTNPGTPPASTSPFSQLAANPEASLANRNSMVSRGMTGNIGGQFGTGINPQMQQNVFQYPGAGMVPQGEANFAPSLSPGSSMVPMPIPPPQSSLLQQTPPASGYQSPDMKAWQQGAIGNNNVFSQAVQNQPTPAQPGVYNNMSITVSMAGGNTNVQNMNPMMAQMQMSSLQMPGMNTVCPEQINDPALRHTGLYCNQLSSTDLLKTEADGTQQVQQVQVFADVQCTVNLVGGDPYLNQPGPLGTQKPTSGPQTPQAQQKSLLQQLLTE

Cytochrome P450 2D6 = Cytochrome P450 2D6 (Homo sapiens, UniProt P10635);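 further: CYP2D6 member of a cytochrome P450 panel assay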
Cytochrome P450 2D6, sequence (P10635 whole entry): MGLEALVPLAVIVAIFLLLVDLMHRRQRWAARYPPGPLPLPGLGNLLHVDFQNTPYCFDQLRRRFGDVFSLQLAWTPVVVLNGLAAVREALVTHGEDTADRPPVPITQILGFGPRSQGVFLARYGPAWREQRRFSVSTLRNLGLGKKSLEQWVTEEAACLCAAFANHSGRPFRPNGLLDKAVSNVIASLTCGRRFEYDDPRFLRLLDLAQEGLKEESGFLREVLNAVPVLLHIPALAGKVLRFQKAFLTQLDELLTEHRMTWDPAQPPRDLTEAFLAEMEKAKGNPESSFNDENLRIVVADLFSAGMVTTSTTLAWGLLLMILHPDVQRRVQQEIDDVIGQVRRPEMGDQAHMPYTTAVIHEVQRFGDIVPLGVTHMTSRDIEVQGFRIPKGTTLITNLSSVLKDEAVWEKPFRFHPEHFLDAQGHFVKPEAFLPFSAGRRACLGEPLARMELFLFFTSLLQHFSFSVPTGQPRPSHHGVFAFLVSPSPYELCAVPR

Cytochrome P450 2C9 = Cytochrome P450 2C9 (Homo sapiens, UniProt P11712)
[13] = target: Peroxisome proliferator-activated receptor gamma/Nuclear receptor coactivator 2 (Homo sapiens, UniProt P37231); assay: (§1) TR-FRET dose response biochemical High Throughput Screening assay for agonists of the steroid receptor coactivator 2 (SRC-2) recruitment by the peroxisome proliferator-activated receptor gamma (PPAR gamma): non-selective agonists. [Related pubchem assays: 1297, 1032 ]; type: functional
Peroxisome proliferator-activated receptor gamma/Nuclear receptor coactivator 2, sequence (P37231 whole entry): as the sequence (P37231 whole entry) above
Peroxisome proliferator-activated receptor gamma/Nuclear receptor coactivator 2, sequence (Q15596 whole entry, further chain): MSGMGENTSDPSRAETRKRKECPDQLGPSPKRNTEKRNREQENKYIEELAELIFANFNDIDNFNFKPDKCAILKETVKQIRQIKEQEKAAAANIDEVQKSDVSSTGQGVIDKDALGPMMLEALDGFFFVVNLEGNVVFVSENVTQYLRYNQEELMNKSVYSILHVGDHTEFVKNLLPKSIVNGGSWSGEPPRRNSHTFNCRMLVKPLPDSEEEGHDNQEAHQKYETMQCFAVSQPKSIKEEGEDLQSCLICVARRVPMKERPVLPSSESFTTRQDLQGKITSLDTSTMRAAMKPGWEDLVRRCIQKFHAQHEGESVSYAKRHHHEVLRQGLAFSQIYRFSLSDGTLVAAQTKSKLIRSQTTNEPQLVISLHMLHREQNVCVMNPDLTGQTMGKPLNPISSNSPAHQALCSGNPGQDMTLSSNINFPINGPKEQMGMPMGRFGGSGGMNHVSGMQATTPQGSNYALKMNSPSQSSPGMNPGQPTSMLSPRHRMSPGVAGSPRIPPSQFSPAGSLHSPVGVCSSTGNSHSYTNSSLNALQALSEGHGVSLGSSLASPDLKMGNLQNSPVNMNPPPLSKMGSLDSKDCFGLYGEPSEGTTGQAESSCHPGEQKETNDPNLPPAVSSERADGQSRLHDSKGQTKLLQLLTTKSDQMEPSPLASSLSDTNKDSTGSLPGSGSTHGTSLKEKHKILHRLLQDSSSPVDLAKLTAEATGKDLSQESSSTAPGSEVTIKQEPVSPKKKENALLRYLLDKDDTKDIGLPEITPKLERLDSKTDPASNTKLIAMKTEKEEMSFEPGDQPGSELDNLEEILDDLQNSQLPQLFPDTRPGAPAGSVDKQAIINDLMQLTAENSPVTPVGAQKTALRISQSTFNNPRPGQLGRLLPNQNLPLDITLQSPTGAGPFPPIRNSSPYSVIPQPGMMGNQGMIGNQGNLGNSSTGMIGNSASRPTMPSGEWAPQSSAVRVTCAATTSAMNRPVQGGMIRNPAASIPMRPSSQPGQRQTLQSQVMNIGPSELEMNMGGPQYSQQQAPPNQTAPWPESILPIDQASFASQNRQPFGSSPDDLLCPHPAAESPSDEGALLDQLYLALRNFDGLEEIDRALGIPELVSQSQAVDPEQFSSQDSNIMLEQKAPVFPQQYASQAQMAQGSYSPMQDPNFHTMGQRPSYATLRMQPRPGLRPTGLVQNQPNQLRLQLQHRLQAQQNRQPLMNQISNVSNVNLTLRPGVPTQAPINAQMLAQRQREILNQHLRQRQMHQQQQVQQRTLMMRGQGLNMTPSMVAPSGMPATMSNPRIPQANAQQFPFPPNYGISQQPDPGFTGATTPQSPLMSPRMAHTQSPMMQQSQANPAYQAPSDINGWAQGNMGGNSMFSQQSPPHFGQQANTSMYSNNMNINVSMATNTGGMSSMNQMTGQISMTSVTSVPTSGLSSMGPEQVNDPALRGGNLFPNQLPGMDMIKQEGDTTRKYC

[14] = target: Peroxisome proliferator-activated receptor gamma/Nuclear receptor coactivator 3 (Homo sapiens, UniProt P37231); assay: as §1, with “3 (SRC-3)” for “2 (SRC-2)”, “1301 (Confirmation screen.), 1048 (Primary screen.)]” for “1297, 1032 ]”; type: functional
Cytochrome P450 2C19 = Cytochrome P450 2C19 (Homo sapiens, UniProt P33261); assay: Cytochrome panel assay with activity outcomes. Panel member name: p450-cyp2c19 Compounds with AC50 equal or less than 10 uM are considered active; type: functional; details: read-out: AC50
Cytochrome P450 2C19, sequence (P33261 whole entry): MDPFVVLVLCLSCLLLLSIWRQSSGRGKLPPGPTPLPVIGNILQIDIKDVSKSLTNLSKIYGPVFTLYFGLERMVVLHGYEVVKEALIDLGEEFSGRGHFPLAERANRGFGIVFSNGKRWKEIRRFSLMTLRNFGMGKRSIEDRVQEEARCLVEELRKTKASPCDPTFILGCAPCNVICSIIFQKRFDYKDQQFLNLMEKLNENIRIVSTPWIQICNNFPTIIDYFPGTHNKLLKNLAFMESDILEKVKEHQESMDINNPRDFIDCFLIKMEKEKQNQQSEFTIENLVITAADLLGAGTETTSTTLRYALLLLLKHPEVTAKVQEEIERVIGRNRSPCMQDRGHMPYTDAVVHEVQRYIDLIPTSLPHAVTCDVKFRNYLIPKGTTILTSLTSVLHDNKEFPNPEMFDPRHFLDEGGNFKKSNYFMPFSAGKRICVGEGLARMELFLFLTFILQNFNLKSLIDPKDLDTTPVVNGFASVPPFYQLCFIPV

Escherichia coli = assay: microbe, parasite or virus in culture
[15] = target: Peroxisome proliferator-activated receptor gamma/Nuclear receptor corepressor 2 (Homo sapiens, UniProt P37231+Q9Y618); type: functional
[16] = target: Photoreceptor-specific nuclear receptor (Homo sapiens, UniProt Q9Y5X4); type: functional;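 further: potency for compounds that break the NR2E3 corepressor complex and count as activators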

CC(C)[N+]12CCC(CC1)C(C(O)(c1ccccc1)c1ccccc1)C2 (stereo not given)
IC50 [1]: 2.71 µM (active) | IC50 [2]: 8.96 µM (active)

COc1cccc(/C=N/Nc2ncnc3scc(-c4ccccc4)c23)c1O
AC50 (INS1): 0.432 µM (active) | EC50 [3]: > 180 µM (inactive) | EC50 [4]: 17.7 µM (active) | EC50 (cells [5]): > 350 µM (not active) | EC50 [6]: 0.753 µM (active) | EC50 (cells [7]): 2.21 µM (active) | AC50 [8]: 24.5 µM (active) | IC50 [9]: 62.5 µM (inactive) | CC50 [10]: 1.31 µM (active) | EC50 [11]: > 150 µM (inactive)

CCn1c(=O)cc(SCC(=O)Nc2cc(OC)c(OC)c(OC)c2)c2ccccc21
EC50 [12]: > 79.4 µM (inactive) | AC50 (Cytochrome P450 2D6): inconclusive | AC50 (Cytochrome P450 2C9): inconclusive | EC50 [13]: 76.2 µM (not active) | EC50 [14]: > 79.4 µM (not active) | AC50 (Cytochrome P450 2C19): 0.355 µM (inconclusive)

O=C(CCSc1ccccc1)NCC1CCCO1 (stereo not given)
AC50 (Escherichia coli): 30.4 µM (active)

C[C@]12CC[C@H]3c4ccc(O)cc4CC[C@@H]3[C@H]1C/C(=N/O)[C@H]2O
AC50 (Cytochrome P450 2D6): inconclusive

O=C(C1=C(O)C(=O)N(CCc2ccccc2)C1c1ccncc1)c1cc2ccccc2o1 (stereo not given)
EC50 [12]: > 79.4 µM (inactive) | IC50 [15]: 7.02 µM (active) | EC50 [13]: 26.1 µM (not active) | IC50 [16]: > 39.8 µM (not active) | EC50 [14]: > 79.4 µM (not active)
